From paper PMC11212140, “Molecular Bidents with Two Electrophilic Warheads as a New Pharmacological Modality” (ACS Central Science, 2024)

Columns and labels:
[1] = system: EGFR^L858R/C775S Ba/F3 cells; assay: Antiproliferation assay (CellTiter-Glo); format: cell-based; conditions: vs EGFR^L858R Ba/F3
Description: Figure S6 Dose-response curves for the indicated compounds in EGFRL858R, EGFRL858R/C797S, and EGFRL858R/C775S Ba/F3 cells following 72 h of treatment. Cell viability was assessed with CellTiter-Glo.
Data are presented as the mean ± SEM (n = 4). Representative data from three independent experiments
(1 picture or pasted object on this page, not shown here)
For infection of Ba/F3 cells, 2.5 mL of viral supernatant and 8 μg/mL polybrene was added to 2.5 million cells per well in six-well plates. The plate was centrifuged at 2500 rpm for 90 minutes at 37 °C for the spin infection. Then, virus-containing medium was removed 48 hours later and successfully infected cells were selected with the addition of 1 μg/mL puromycin to the medium.
After 3 days, cells were transferred into the fresh medium without IL-3 and puromycin. IL-3-independent transformed cells were maintained in RPMI medium 1640 supplemented with 10%
FBS. Expression of EGFR was examined by Western blot.
Immunoblotting and antibodies
(§1) Cells were lysed in RIPA buffer (150 mM NaCl, 1.0% IGEPAL® CA-630, 0.5% sodium deoxycholate, 0.1% SDS, 50 mM Tris, pH 8.0) (Sigma, Cat# R0278) with protease inhibitor and phosphatase inhibitor (Roche). The protein concentrations were measured by BCA analysis (Thermo Fisher Scientific, Cat # PI23225). […]
(§2) or IRDye 680RD goat anti-Mouse IgG (LICOR Biosciences , Cat # 926-68070) secondary antibodies at room temperature for 1 hour. The membranes were detected on Odyssey CLx system. […]
treatment. Cell viability was determined by using CellTiter-Glo (Promega #G7571) according to the manufacturer’s instructions, measuring luminescence using an Envision plate-reader (PerkinElmer Inc.). […]
After 6 hours treatment, cells were pelleted, washed with PBS once and lysed with IP lysis buffer (25mMTris-HCl pH 7.4, 150mM NaCl, 1 mM EDTA, 1% NP-40 and 5% glycerol) (Thermo Fisher Scientific, Cat#87788) containing protease/phosphatase inhibitor cocktail (Roche). The protein concentrations were measured by BCA analysis (Pierce). […]

[2] = system: EGFR, ERK1/2, and Akt phosphorylation; assay: Immunoblot of EGFR signaling pathway in EGFR-mutated Ba/F3 cells; format: cell-based; conditions: EGFR^L858R, EGFR^L858R/C797S and EGFR^L858R/C775S Ba/F3 cells, 6 h
Description: Figure 5 ZNL-0056 covalently engages Cys775 and Cys797 in EGFR Ba/F3 cells. (A) The average IC50 values (mean ± S.D.) of the indicated compounds in EGFR^L858R Ba/F3, EGFR^L858R/C797S Ba/F3, and EGFR^L858R/C775S Ba/F3 cells after […] treatment. The graph was generated from three independent experiments, each performed with four replicates. (B) Immunoblot assessment of the effect of ZNL-0056 on the EGFR signaling pathway in EGFR^L858R Ba/F3, EGFR^L858R/C797S Ba/F3, and EGFR^L858R/C775S Ba/F3 cells after 6 h treatment. Representative data from two independent experiments are shown.
For infection of Ba/F3 cells, 2.5 mL of viral supernatant and 8 μg/mL polybrene was added to 2.5 million cells per well in six-well plates. The plate was centrifuged at 2500 rpm for 90 minutes at 37 °C for the spin infection. […]
as §1, §2

[3] = In vivo pharmacokinetics in mice; conditions: male C57BL/6 mice
Description: To address this question, we tested the GSH reactivity of ZNL-0056 (Table S3) and its in vivo pharmacokinetic (PK) properties using three routes of administration including: 1 mg/kg IV, 3 mg/kg IP, and 10 mg/kg PO in male C57BL/6 mice (Table S4).
Table S4. Effect of ZNL-0056 in vivo- PK Parameters
Dose: 1mg/Kg IV, 3mg/Kg IP, 10mg/Kg PO. Formulation: 0.1mg/mL(IV) and 0.3mg/mL (IP)
and 1mg/mL (PO) solution in 5/25/70 EtOH/PEG300/D5W. […]

C=CC(=O)Nc1cc(C(=O)Nc2nc3cccc(C)c3n2[C@@H]2CCCCN(C(=O)C=C)C2)cs1 [ZNL-0056]
potency loss (shift) in the EGFR^L858R/C775S mutant [1]: 2 fold | inhibition of EGFR, ERK1/2, and Akt phosphorylation [2]: significantly inhibited | area under the curve ([3]; 1 mg/kg IV): 21 820 min·ng/mL | average maximal plasma concentration ([3]; 3 mg/kg IP): 1.3 µmol/L | area under the curve ([3]; 10 mg/kg PO): 63 341 min·ng/mL | average maximal plasma concentration ([3]; 10 mg/kg PO): 1.4 µmol/L | half-life ([3]; mouse, plasma, 1 mg/kg IV): 19.8 min | bioavailability ([3]; mouse, plasma, 10 mg/kg PO): 24%
